Assay results published in patent US11781114B2, “Materials and methods for expansion of stem cells” (FLORIDA STATE UNIVERSITY RESEARCH FOUNDATION, INC., priority 2014, dated 2023).
Entries after “also recorded” stand apart in the source; their conditions may differ.

Assays:
Type in all cases: cell-based, human
[1] = test system: hMSC aggregates; assay: hMSC aggregate formation and compaction (aggregate size) with cytoskeleton modulators; set-up: aggregate compaction vs non-treated control: dose or concentration left out as unconfirmed; details: for aggregate compaction / aggregate diameter: 0.2 to 0.6 μM; for aggregate compaction vs non-treated control: nocodazole 3D treatment
Procedure: hMSCs from monolayer culture were trypsinized and 100 μL media containing 5,000 cells were added in each well of an ultra-low attachment (ULA) 96-well plate with round-bottom (Corning, Corning, N.Y.) for overnight. To analyze size-dependent ATP contents, aggregates containing 500, 2,000, and 5,000 cells were used following the same method. Suspended single hMSCs spontaneously self-assembled into one aggregate per well. Aggregates were cultured individually up to 7 days with media change every two days. The aggregates were tracked individually and the morphologies were imaged with an Olympus IX70 microscope (Center Valley, Pa.).
Cytochalasin D (cytoD), lysophosphatidic acid (LPA), Y-27632, nocodazole were added into culture media to final concentrations of 0.2 to 0.6 μM, 2.0 to 10.0 μM, 2.0 to 10 μM, and […], respectively. To test the temporal effects of actin modulators on aggregate formation, cells were treated with media containing cytoD and LPA during monolayer culture prior to aggregate formation (termed “2D Pretreatment”) or 12 hours after aggregate formation in ULA plates (termed “3D Treatment). Only 3D treatments were performed for Y-27632 and nocodazole.
Morphology of the aggregates was visualized using an Olympus IX70 microscope and the images recorded. The images were processed and the areas of the individual aggregates were calculated using ImageJ software (rsb.info.nih.gov/ij/). The DNA content of the individual aggregates was used to calculate cell number. Briefly, individually collected hMSC aggregates were washed with phosphate buffered saline (PBS) and digested with proteinase K overnight. PicoGreen (Life Technologies) was added to triplicate samples and a DNA standard in a 96-well plate. The cell numbers in aggregates were determined by the PicoGreen fluorescence intensity using 9.3 pg/cell as determined in our prior study (Kim and Ma 2012). DNA assay detects double-stranded DNA that may also be present in dead cells with intact DNA. However, this population in the aggregates is low, and the yield of live cells measured by DNA assay is close to cell count using other methods such as flow cytometry (Ylostalo et al. 2014). The packing densities were calculated using cell number divided by aggregate volume assuming a spherical shape. At least six aggregates were used in each condition.

[2] = test system: hMSC aggregates; assay: Cell survival and packing density of aggregates by DNA content (PicoGreen)
Procedure: The DNA content of the individual aggregates was used to calculate cell number. Briefly, individually collected hMSC aggregates were washed with phosphate buffered saline (PBS) and digested with proteinase K overnight. PicoGreen (Life Technologies) was added to triplicate samples and a DNA standard in a 96-well plate. The cell numbers in aggregates were determined by the PicoGreen fluorescence intensity using 9.3 pg/cell as determined in our prior study (Kim and Ma 2012). […] The packing densities were calculated using cell number divided by aggregate volume assuming a spherical shape. At least six aggregates were used in each condition.

[3] = test system: PGE-2; assay: Secreted PGE-2 in conditioned media (Parameter Assay Kit); details: treated 3D aggregates
Procedure: (§1) Caspase 3/7 activity was measured by Caspase-Glo 3/7 assay systems (Promega, Madison, Wis.). Caspase-Glo 3/7 working buffer was added to triplicate samples containing aggregates and culture media in 96-well [sequence] 200 white immunology plate (Greiner Bio-One, Monroe, N.C.). The results were read by a luminescence plate reader and normalized to cell number (Biotek Instruments, Winooski, Vt.). Secreted PGE-2 and IL-6 in conditioned media were quantified using a PGE-2 Parameter Assay Kit and IL-6 DuoSet ELISA kits, respectively (R&D Systems, Minneapolis, Minn.). Total secreted PGE-2 and IL-6 were determined by subtracting cytokine concentrations in culture media controls and normalized to the cell number in the aggregates.

[4] = test system: IL-6; assay: Secreted IL-6 in conditioned media (ELISA); details: treated 3D aggregates
Procedure: as §1

[5] = test system: hMSC aggregates; assay: Aggregate spreading on glass coverslip and fusion on ULA surface; details: for aggregate spreading on glass coverslip / fusion of adjacent aggregates on ULA surface: aggregates treated for 5 days
Procedure: To test re-adhesion and fusion, the aggregates from various treatment conditions were plated on glass coverslip for re-adhesion or placed adjacently on ULA surface for fusion. Images were captured with Olympus IX70 microscope and analyzed by ImageJ software.

[6] = test system: Caspase 3/7; assay: Caspase-Glo 3/7 assay; details: for caspase 3/7 activity in 3D aggregates: normalized to cell number
Procedure: as §1

[7] = test system: hMSC aggregates; assay: Morphology by SEM, H&E histology and F-actin staining; details: for cell morphology in the aggregates (SEM and histology) / outer boundary of aggregates (H&E, F-actin staining of sections): treated aggregates vs control aggregates; for hMSC morphology on 2D planar surface (F-actin staining): nocodazole treatment
Procedure: For SEM, the aggregate samples were fixed in 4% paraformaldehyde (PFA), dehydrated through a graded series of ethanol, incubated in hexamethyldisilazane, and vacuum dried overnight. The samples were mounted onto carbon-coated chucks, sputter-coated with gold in an argon atmosphere for 4 minutes at 2 kV, and analyzed on a SEM (JSM-7401F) (JEOL, Tokyo, Japan). For immunostaining, the cells were fixed with 4% PFA, permeabilized with 0.5% Triton X-100, blocked with 1.0% BSA, incubated with primary antibody, and imaged with an Olympus IX70 (Center Valley, Pa.) microscope. For histology, hematoxylin-eosin (H&E) staining was performed following the prior reported method (Kim and Ma 2012). hMSC aggregates were fixed in 10% formalin, dehydrated and embedded in paraffin wax; 10 μm sections were cut and stained with Lerner-2 Hematoxylin (Lerner Laboratories, Pittsburgh, Pa.) and Eosin-Y w/ Phloxine (Richard-Allan Scientific, Kalamazoo, Mich.) by standard procedures (Kim and Ma 2012). Images were captured with Olympus IX70 microscope with MagnaFire SP 2.1B software.

[8] = test system: hMSC aggregates; assay: hMSC aggregate formation and compaction (aggregate size) with cytoskeleton modulators; details: cytoD 2D pretreatment, concentration above 0.6 μM (high concentration)
[9] = Q-VD-OPh, after three days of culture
[10] = 0.6 μM cytoD 3D treatment, day 5

## CC(C)[C@H](NC(=O)c1ccc2ccccc2n1)C(=O)N[C@@H](CC(=O)O)C(=O)COc1c(F)cccc1F [Q-VD-OPh]
[1]; [9]
  aggregate compaction vs control: significantly reduced cell compaction
[2]; [9]
  cell packing density vs control: increased cell packing density; also recorded: higher packing density
  cell viability / survival vs control: improved cell survival; also recorded: significantly increased cell viability
[3]
  PGE-2 secretion of 3D aggregates: attenuated to basal levels
[4]
  IL-6 secretion of 3D aggregates: attenuated to basal levels

## C[C@@H](N)[C@H]1CC[C@H](C(=O)Nc2ccncc2)CC1 [Y-27632]
[1]; 10 μM Y-27632, day 5
  increase in aggregate diameter compared to control aggregates: 6.7%
[1]; Y-27632 3D treatment, 10 μM
  aggregate compaction: prevented aggregate compaction; also recorded: reduced aggregate compaction
[2]; 10 μM Y-27632, 5 days of treatment
  cell viability / cell survival vs control aggregates: lower than non-treated control; also recorded: comparable or even less
[2]; 10 μM Y-27632, day 5
  decrease in cell packing density compared to control aggregates: 38.7%
[2]; Y-27632, day 5
  cell packing density vs control (in words): significantly lower
[3]
  PGE-2 secretion of 3D aggregates: limited effects
[5]
  aggregate spreading on glass coverslip: readily re-adhered and spread on glass coverslips
  fusion of adjacent aggregates on ULA surface: fused when adjacently placed on ULA surface; also recorded: reduced tendency to fuse
[6]
  caspase 3/7 activity in 2D adherent culture: increased caspase 3/7 activity
  caspase 3/7 activity in 3D aggregates: highest caspase 3/7 activity; also recorded: increased caspase 3/7 activity
[4]
  IL-6 secretion of 3D aggregates: limited effects
[7]
  cell morphology in the aggregates (SEM and histology): large interstitial space and exhibit round morphology; also recorded: loosely packed and exhibited spherical morphology with abundant interstitial space
  outer boundary of aggregates (H&E, F-actin staining of sections): disintegrated outer boundaries; also recorded: discontinuous outer boundary; also recorded: loosely packed with no spreading at the boundary

## C=C1[C@@H](C)[C@H]2[C@H](Cc3ccccc3)NC(=O)[C@]23[C@H](OC(C)=O)/C=C/[C@@](C)(O)C(=O)[C@@H](C)C/C=C/[C@H]3[C@@H]1O [cytoD, Cytochalasin D]
[8]
  hMSC aggregation (aggregate formation): disrupted hMSC aggregation
[8]; listed as CytoD
  hMSC aggregation (aggregate formation): prevented hMSC aggregation
[1]; cytoD 2D pretreatment, lower concentrations
  aggregate compaction: prevented aggregate compaction
[1]; cytoD 2D pretreatment, lower concentrations, listed as CytoD
  aggregate compaction: reduced compaction
[1]; cytoD 3D treatment, 0.6 μM
  aggregate integrity: remained intact
[1]; cytoD 3D treatment
  aggregate compaction / aggregate diameter: dose-dependent reduction on compaction
[1]; cytoD 3D treatment, listed as CytoD
  aggregate compaction / aggregate diameter: reduced compaction; also recorded: Dose-dependent decline of aggregate diameters
[2]; [10]
  cell viability / cell survival vs control aggregates: significantly reduced cell viability; also recorded: significantly lower cell survival
  packing density vs control aggregates: significantly reduced; also recorded: significantly lower
[3]
  PGE-2 secretion of 3D aggregates: limited effects
[5]
  aggregate spreading on glass coverslip: abolishes; also recorded: did not spread on glass coverslips; also recorded: completely prevented aggregate spreading on glass coverslip
  fusion of adjacent aggregates on ULA surface: abolishes; also recorded: nor fused; also recorded: completely prevented
[5]; hBMSC aggregates on ULA plates / glass
  fusion and adhesion properties of hBMSC aggregates: abrogated their fusion and adhesion properties; also recorded: abrogates these properties
[6]
  caspase 3/7 activity in 2D adherent culture: significantly increased caspase 3/7 activity
  caspase 3/7 activity in 3D aggregates: comparable apoptotic activity
[4]
  IL-6 secretion of 3D aggregates: limited effects
[7]
  cell morphology in the aggregates (SEM and histology): large interstitial space and exhibit round morphology; also recorded: loosely packed and exhibited spherical morphology with abundant interstitial space
  outer boundary of aggregates (H&E, F-actin staining of sections): loosely packed with no spreading at the boundary
[7]; listed as CytoD
  outer boundary of aggregates (H&E, F-actin staining of sections): disintegrated outer boundaries; also recorded: discontinuous outer boundary
[7]; listed as cytochalasin D
  outer boundary of aggregates (H&E, F-actin staining of sections): disrupted the mechanically polarized outer layer

## COC(=O)Nc1nc2cc(C(=O)c3cccs3)ccc2[nH]1 [nocodazole]
[1]
  aggregate compaction vs non-treated control: comparable contractility with control aggregates; also recorded: comparable or higher compaction
[1]; listed as Nocodazole
  aggregate compaction vs non-treated control: faster compaction
[5]
  aggregate spreading on glass coverslip: readily spread on adherent surface; also recorded: readily re-adhered and spread on glass coverslips; also recorded: spread on glass coverslip
  fusion of adjacent aggregates on ULA surface: fuse with neighboring aggregates; also recorded: fused when adjacently placed on ULA surface; also recorded: readily fused
[7]
  hMSC morphology on 2D planar surface (F-actin staining): drastic changes of cell morphology
[7]; listed as Nocodazole
  hMSC morphology on 2D planar surface (F-actin staining): significantly altered hMSC morphology

## lysophosphatidic acid [LPA]
[1]; LPA up to 10 μM, 2D pretreatment and 3D treatment
  aggregate compaction vs control: minimal impact on aggregate compaction; also recorded: declined at the same rate as control; also recorded: limited effects
[2]; LPA up to 10 μM, 5 days 3D treatment
  viability / cell survival vs control: comparable cell survival; also recorded: limited effects
[2]; LPA, 5 days 3D treatment
  cell packing density vs control: comparable
[5]
  aggregate spreading on glass coverslip: readily re-adhered and spread on glass coverslips; also recorded: spread on glass coverslip
  fusion of adjacent aggregates on ULA surface: fused when adjacently placed on ULA surface; also recorded: readily fused
[6]
  caspase 3/7 activity in 2D adherent culture: increased caspase 3/7 activity
  caspase 3/7 activity in 3D aggregates: increased caspase 3/7 activity
